Results taken from patent publication US4968686A, “Acyclic pyrrolo [2,3-d]pyrimidine analogs as antiviral agents” (The Regents of The University of Michigan, priority 1989, dated 1990).

Experiments:
[1] = tested on: HCMV; experiment: HCMV plaque (focus) reduction assay; assay type: cell-based; settings: Human betaherpesvirus 5; Table 1; HFF cells; read-out: 50% Inhibitory Concentration HCMV Plaque
Excerpt: (§1) The 148 strain of HSV-1 was used in most experiments and was provided by Dr. T. W. Schafer of Schering corporation. The HF strain of HSV-1 was used in selected experiments and was obtained from Dr. G. H. Cohen, University of Pennsylvania. The Towne strain, plaque-purified isolate Po, of HCMV was a gift of Dr. Mark Stinski, University of Iowa.
(§2) HCMV was titered in 24-well cluster dishes which were planted to contain 5×10^4 cells/well, grown as described above. When the cells were 70 to 80% confluent, 0.2 ml of the virus suspension was added per wall and adsorbed as described above. At least three ten-fold dilutions of each preparation were used. Following virus adsorption, the cell sheets were overlayed with 0.5% methocel (4000 CPS) in maintenance medium [MEM(E) with 1.1 gm/liter NaHCO3, 100 units/ml penicillin G, 100 μg/ml streptomycin, and 5% fetal bovine serum]. The cultures were incubated in a humidified atmosphere of 4% CO2 -96% air. Viral foci were visible 5 to 7 days after infection using at least 10-fold magnification. Cells were fixed and stained by a 10-minute exposure to a 0.1% solution of crystal violet in 20% methanol 7 to 12 days after infection. Microscopic foci were enumerated at 20-fold magnification using a Nikon Profile Projector.
(§3) The effect of compounds of the replication of HCMV has been measured using both a plaque (focus) reduction assay and a titer (yield) reduction assay. For the former, HFF cells in 24-well culture dishes were infected with approximately 50 p.f.u. of HCMV per well using the procedures detailed above. Compounds dissolved in growth medium were added in three to six selected concentrations to triplicate wells following virus adsorption. Following incubation at 37° C. for 7 to 10 days, cell sheets were fixed, stained and microscopic foci were enumerated as described above. Drug effects were calculated as a percentage of reduction in number of foci in the presence of each drug concentration compared to the number observed in the absence of drug. DHPG (ganciclovir) was used as a positive control in all experiments.
(§4) Dose-response relationships were used to compare drug effects. These were constructed by linearly regressing the percent inhibition of parameters derived in the preceding sections against log drug concentrations. The 50% inhibitory (I50) concentrations were calculated from the regression lines using the methods described by Goldstein. See Goldstein, A., Biostatistics: An Introductory Text, MacMillan, N.Y., 1964, pp. 156-161. Along with the I50 concentration for visual cytotoxicity, the averaged I50 concentrations are compared to I50 concentrations for inhibition for HCMV or HSV-1 replication. Compounds for which the ratio of cytotoxicity I50 concentrations to antiviral I50 concentrations (in vitro therapeutic index) were greater than 10, were considered for further study.

[2] = tested on: HCMV; experiment: HCMV titer (yield) reduction assay; assay type: cell-based; settings: Human betaherpesvirus 5; for IC90: Table 1, I90, HFF cells, read-out: HCMV Yield, 90% inhibitory concentration (I90)
Excerpt: as §1, §2
(§5) For titer reduction analysis, HFF cells were planted as described above in 24-well cluster dishes or in 25 cm^2 flasks. When monolayers were approximately 70% confluent, HCMV was added at a m.o.i. of 0.5 p.f.u. per cell and adsorbed as detailed above. Compounds dissolved in growth medium were added in one or one-half logarithm10 dilutions and incubation continued at 37° C. After 7 to 10 days of incubation, culture dishes or flasks were frozen at […] For titer determination, cells were thawed and then subjected to two more cycles of freezing and thawing at 37° C. Serial, one-logarithm10 dilutions of the final suspension were prepared and inoculated onto new cultures of HFF cells. Titer determination was as detailed above in part (1) (b).
as §4

[3] = tested on: HSV-1; experiment: HSV-1 plaque reduction assay, strain S148; assay type: cell-based, herpes simplex virus type 1 (strain S148) in BSC-1 cells; settings: Human alphaherpesvirus 1; Table 1; strain S148; BSC-1 cells; read-out: 50% Inhibitory Concentration HSV-1 Plaque
Excerpt: as §1
HSV-1 was titered using monolayer cultures of BSC-1 cells. Cells were planted at 3×10^5 cells/well using 6-well cluster dishes. MEM(E) supplemented with 10% fetal bovine serum was employed as medium. After 22-24 hours, cells were 90% confluent and were inoculated in triplicate using at least three ten-fold dilutions with 0.2 ml of the virus suspension to be assayed and incubated in a humidified 4% CO2 […] atmosphere for one hour to permit viral adsorption. Following virus adsorption, the cell sheet was overlayed with 5 ml of MEM(E) with 5% serum plus 0.5% methocel (4000 CPS) and incubated an additional two to three days. Cells were fixed and stained with 0.1% crystal violet in 20% methanol and macroscopic plaques enumerated.
Plaque reduction experiments were HSV-1 were performed using monolayer cultures of BSC-1 cells. The assay was performed exactly as described above except that the 0.2 ml virus suspension contained approximately 100 p.f.u. of HSV-1. Compounds to be tested were dissolved in the overlay medium at concentrations usually ranging from 0.1 to 100 μM in half-or-one logarithm10 dilutions. Titer reduction assays were performed by planting KB cells in 25 cm^2 plastic tissue culture flasks 10 to 24 hours prior to infection. At the onset of experiments, logarithmically growing replicate monolayer cultures were 60 to 80% confluent and contained 2.5 to 4.5×10^6 cells/flask. Medium was decanted and the cultures were infected with 2 to 10 p.f.u. of HSV-1 per cell. Virus was contained in 1.0 ml of VGM supplemented with 5% fetal bovine serum. After a 1 hour adsorption period at […], the cell sheet was rinsed twice with 2 ml of VGM without serum to remove unadsorbed virus and 5 ml of VGM containing drugs at three to five selected concentrations added in duplicate. Following an 18- to 22-hour incubation at 37° C., infected monolayers were treated with EDTA-trypsin to suspend the cells; aliquots were removed, subjected to three cycles of freezing and thawing, and stored at -76° C. for subsequent virus assay. Virus was titered on BSC-1 cells as described above.
as §4

[4] = Visual cytotoxicity scoring in HFF cells; assay type: cell-based; settings: human, Table 1, at time of HCMV plaque enumeration, read-out: 50% Inhibitory Concentration Cytotoxicity HFF (visual)
Excerpt: (§6) Cytotoxicity produced in HFF and BSC-1 cells was estimated by visual scoring of cells not affected by virus infection in the HCMV and HSV-1 plaque reduction assays. Cytopathology was estimated at 35- and 60-fold magnification and scored on a zero to four plus basis. Wells were scored on the day of staining.
as §4

[5] = Visual cytotoxicity scoring in BSC-1 cells; assay type: cell-based; settings: african green monkey, Table 1, at time of HSV-1 plaque enumeration, read-out: 50% Inhibitory Concentration Cytotoxicity BSC (visual)
Excerpt: as §6, §4

[6] = in vitro; assay type: cell-based, human; settings: human, kb cells
Protocol: (§7) KB or HFF cells were planted using a Costar Transplate-96 (Costar, Cambridge, Mass.) in Costar 96-well cluster dishes at a concentration of 10,000 to 12,000 cells per well. Wells were suspended in 200 μl of medium [MDM(H) plus 0.7 gm/liter NaCHO3 supplemented with 10% calf serum] per well. After incubation of 16 to 24 hours at 37° C. in a humidified atmosphere of 4% CO2 in air, […] of medium was removed per well. One-hundred μl of medium with or without compounds in twice their final concentrations was added to each well using a Titertek Multichannel Pipette. Final concentrations of compounds ranged from 0.1 to 320 μM. Fifty μl of medium containing radioactive precursors also was added to each well to give a final concentration to 1 to 3 μCi/ml of labeled precursor. [^3 H]Thd was diluted with unlabeled dThd to give a final concentration of 3 or 6 μM.
(§8) Logarithmic cell growth occurred during this time with continual uptake of labeled precursors. At the end of the incubation period, cells were individually harvested from each well using a Skatron Cell harvester (Skatronh, Inc., Sterling, Va.). Cultures for individual wells were harvested onto filter paper and washed free of unincorporated label with nine sequential washes with 5% trichloroacetic acid, nine washes with water, and nine with ethanol using the Skatron unit. Filters were dried, circles from individual cultures were punched from the filter mat and placed into mini-vials. Liquid scintillation solution was added, and radioactivity determined in a Beckman model LS8100 liquid scintillation spectrometer. All samples were counted for 2.0 minutes each, with three rounds of counting. Counts per minute were determined following the application of statistical methods to eliminate count rates which fell outside distribution limits defined by Chauvenet's rejection criterion.
(§9) All analyses were performed in triplicate. That is, three culture wells were used per time point, radioactive precursor, and drug concentration in all experiments. Results from triplicate assays were converted to percent of control and plotted as log dose-response curves from which 50% inhibitor (I50) concentrations were interpolated. Three concentrations of vidarabine were included on all plates as a positive control.
as §4

[7] = tested on: KB cells; experiment: cells; assay type: cell-based, human; settings: Homo sapiens; [3H]dThd incorporation, KB cells; read-out: I50 on [3H]dThd incorporation
Protocol: as §7, §8, §9, §4

[8] = tested on: viruses; settings: cited from earlier work
[9] = tested on: HCMV; experiment: HCMV titer, plaque or yield reduction; assay type: cell-based, human cytomegalovirus (Towne strain) in HFF cells
Excerpt: as §1, §2, §3, §5, §4

[10] = Growth of KB cells (population doubling times); assay type: cell-based, human; settings: human, kb cells; 100 μM; read-out: reduction of KB cell growth rate
Protocol: (§10) Population doubling times and cell viability were measured in uninfected HFF and/or KB cells. Cells were planted in replicate 6-well plastic tissue culture dishes or in 25 cm^2 flasks as described above in part 1. Following an incubation period during which cells attached to the substrate, medium was decanted, the cell sheet rinsed once with HBS, and fresh medium added. The medium consisted of MEM(E) with 1.1 gm NaHCO3 /liter and 10% fetal bovine or calf serum plus appropriate log or half-log concentrations of drug. After additional periods of incubation from 1 to 72 hours at 37° C., cells were harvested by means of 0.05% trypsin plus 0.02% EDTA in a HEPES-buffered salt solution. Cells were enumerated using either a Coulter counter or a hemocytometer and viability determining using trypsan blue dye exclusion.
(§11) In more extensive cytotoxicity testing, the halogenated compounds were tested for effects on the growth of KB cells. Populations doubling times were calculated from the logarithmic portions of growth curves and were as follows: […]

[11] = tested on: KB cells; experiment: Growth of KB cells (population doubling times); assay type: cell-based, human
Protocol: as §10, §11

SMILES | IC50 [1] | IC90 [2] | CC50 [4] | antiviral activity previously reported [8] | activity against HCMV (in words) [9] | other results
NC(=S)c1cn(COC(CO)CO)c2ncnc(N)c12 [UMJD 239, 4-Amino-7-[(1,3-dihydroxy-2-propoxy)methyl]pyrrolo[2,3-d]-pyrimidine-5-thiocarboxamide] | 8 µM | 25 µM | > 100 µM | – | – | IC50 [3]: > 100 µM; CC50 [5]: > 100 µM; CC50 [6]: > 100 µM; IC50 [7]: 28 µM
NC(=O)c1cn([C@@H]2O[C@H](CO)[C@@H](O)[C@H]2O)c2ncnc(N)c12 [sangivamycin] | – | – | – | Broad spectrum antiviral activity | – | –
N#Cc1cn([C@@H]2O[C@H](CO)[C@@H](O)[C@H]2O)c2ncnc(N)c12 [toyocamycin] | – | – | – | Broad spectrum antiviral activity | – | –
NC(=S)c1cn(COCCO)c2ncnc(N)c12 [UMJD 229, 4-Amino-7-(2-hydroxyethoxymethyl)pyrrolo[2,3-d]pyrimidine-5-thiocarboxamide] | 11 µM | 80 µM | 100 µM | – | active | IC50 [3]: > 100 µM; CC50 [5]: > 100 µM; CC50 [6]: > 100 µM; IC50 [7]: 10 µM
Nc1ncnc2c1c(I)cn2COC(CO)CO [UMJD 330, 4-amino-5-iodo-7-[(1,3-dihydroxy-2-propoxy)methyl]-pyrrolo[2,3-d]pyrimidine] | 3.1 µM | 0.9 µM | > 100 µM | – | – | log reduction at 100 µM ([2]; FIG. 2, 10-fold higher concentration than UMJD 183 (10 μM)): 5
OCC(CO)OCn1cc(I)c2c(NO)ncnc21 [UMJD 329, 4-hydroxylamino-5-iodo-7-[(1,3-dihydroxy-2-propoxy)methyl]pyrrolo[2,3-d]pyrimidine] | 18 µM | 3.2 µM | > 100 µM | – | active and nearly as potent as the 4-amino analogs | inhibition at 100 µM [10]: > 50%; KB cell growth rate (in words) ([11]; 10 μM): nearly control rates; effect on KB cell growth (in words) ([11]; comparison with UMJD 102 / UMJD 183): considerably lesser effects on cell growth
Nc1ncnc2c1ccn2[C@@H]1O[C@H](CO)[C@@H](O)[C@H]1O [tubercidin] | – | – | – | Broad spectrum antiviral activity | – | –
OCC(CO)OCn1cc(Cl)c2c(NO)ncnc21 [UMJD 328, 4-hydroxylamino-5-chloro-7-[(1,3-dihydroxy-2-propoxy)methyl]pyrrolo[2,3-d]pyrimidine] | 56 µM | 24 µM | > 100 µM | – | active and nearly as potent as the 4-amino analogs | –
